The values that follow are results of earlier work, collected in US20230364118A1, “RIBITOL TREATMENT” (priority 2020, published 2023).

For this series the following is noted: rabbits; cited from earlier work.

By half-life is commonly meant the time in which the quantity being followed falls by half. For the molecule `O=C[C@H](O)[C@H](O)[C@H](O)CO` [D-ribose], the half-life is 14 to 24 min.
